Measurements reported in patent EP1092007B1, “A NEW IMPROVED ENZYME CONTAINING GRANULE” (Novozymes A/S, priority 1998, dated 2000).

Test: Measurement of constant humidity values for coating compounds
Assay type: physicochemical
Settings: for CH20°C (constant humidity): 20°C; for CH20°C (constant humidity) / CH25°C (constant humidity): % RH of air over saturated aqueous solution; for Constant humidities at 25°C / CH25°C (constant humidity): 25°C
Description: The term "constant humidity" (in the context of the invention sometimes abbreviated as CH) of a compound or substance is to be understood as the % RH of atmospheric air in equilibrium with a saturated aqueous solution of said compound in contact with the solid phase of said compound, all confined within a closed space at a given temperature. […] Accordingly CH20 °C =50% for a compound means that air with a 50% humidity will be in equilibrium with a saturated aqueous solution of the compound at 20°C. Accordingly the term constant humidity is a measure of the hygroscopic properties of a compound.
The constant humidity of water soluble compound coating materials were measured by preparing a saturated aqueous solution with excess of solid phase of the compound in an open beaker.

N.O=P(O)(O)O [(NH4)H2PO4]
CH20°C (constant humidity): 93.1%

N.N.O=S(=O)(O)O [Ammonium sulfate]
Constant humidities at 25°C: 79

O=S(=O)([O-])[O-].[K+].[K+] [Example K2SO4, K2SO4]
CH25°C (constant humidity): 99%

O=P([O-])(O)O.[K+] [KH2PO4]
CH20°C (constant humidity): 92%

O=S(=O)([O-])O.[K+] [KHSO4]
CH20°C (constant humidity): 86%

O=P([O-])([O-])O.[Na+].[Na+] [Na2HPO4]
CH20°C (constant humidity): 95%

O=S(=O)([O-])[O-].[Na+].[Na+] [Na2SO4, sodium sulfate]
CH20°C (constant humidity): 93%
Constant humidities at 25°C: 93

O=P([O-])([O-])[O-].[Na+].[Na+].[Na+] [Na3PO4]
CH25°C (constant humidity): 92%

O=S(=O)([O-])[O-].[Zn+2] [ZnSO4]
CH20°C (constant humidity): 90%

O=C([O-])CC(O)(CC(=O)[O-])C(=O)[O-].[Na+].[Na+].[Na+] [sodium citrate]
Constant humidities at 25°C: 86
CH25°C (constant humidity): 86%

O=C[O-].[Na+] [sodium formiate]
Constant humidities at 25°C: 56
